Where two headings read alike, the source gives them in different places.
How the values were obtained:
Format in all cases: cell-based
[1] = biological target: 5-HT6 serotoninergic receptors (Homo sapiens, UniProt P50406); test: Cellular functional assay, 5-HT6 serotoninergic receptors; conditions: for 5-HT6 ag [%]: agonist mode, percent of control specific agonist response
Experimental: (§1) The results are expressed as a percent of control specific agonist response ((measured specific response/control specific agonist response)×100) obtained in the presence of the test compounds.
(§2) The EC50 values (concentration producing a half-maximal specific response) and IC50 values (concentration causing a half-maximal inhibition of the control specific agonist response) were determined by non-linear regression analysis of the concentration-response curves generated with mean replicate values using Hill equation curve fitting (Y=D+[(A−D)/(1+(C/C50)nH)], where Y=specific response, D=minimum specific response, A=maximum specific response, C=compound concentration, and C50=EC50 or IC50, and nH=slope factor). This analysis was performed using a software developed at Cerep (Hill software) and validated by comparison with data generated by the commercial software SigmaPlot® 4.0 for Windows® (© 1997 by SPSS Inc.).
(§3) For the antagonists, the apparent dissociation constants (Kb) were calculated using the modified Cheng Prusoff equation (Kb=IC50/(1+(A/EC50A)), where A=concentration of reference agonist in the assay, and EC50A=EC50 value of the reference agonist).

[2] = biological target: 5-HT7 serotoninergic receptors (Homo sapiens, UniProt P34969); test: Cellular functional assay, 5-HT7 serotoninergic receptors; conditions: for 5-HT7 ag [%]: agonist mode, percent of control specific agonist response
Experimental: as §1, §2, §3

[3] = biological target: 5-HT2A serotoninergic receptors (Homo sapiens, UniProt P28223); test: Cellular functional assay, 5-HT2A serotoninergic receptors
Experimental: as §1
as §2, with “factor).” for “factor). This analysis was performed using a software developed at Cerep (Hill software) and validated by comparison with data generated by the commercial software SigmaPlot® 4.0 for Windows® (© 1997 by SPSS Inc.).”
as §3

[4] = biological target: T1, D4 dopaminergic receptors (Homo sapiens, UniProt P21917); test: Cellular functional assay, D4 dopaminergic receptors; conditions: D4.4 (h), CHO cells; for D4 ag [%]: agonism, percent of control specific agonist response (300 nM dopamine for control); for D4 antag [%]: antagonism, stimulus dopamine (100 nM)
T1 sequence (P21917 1-419): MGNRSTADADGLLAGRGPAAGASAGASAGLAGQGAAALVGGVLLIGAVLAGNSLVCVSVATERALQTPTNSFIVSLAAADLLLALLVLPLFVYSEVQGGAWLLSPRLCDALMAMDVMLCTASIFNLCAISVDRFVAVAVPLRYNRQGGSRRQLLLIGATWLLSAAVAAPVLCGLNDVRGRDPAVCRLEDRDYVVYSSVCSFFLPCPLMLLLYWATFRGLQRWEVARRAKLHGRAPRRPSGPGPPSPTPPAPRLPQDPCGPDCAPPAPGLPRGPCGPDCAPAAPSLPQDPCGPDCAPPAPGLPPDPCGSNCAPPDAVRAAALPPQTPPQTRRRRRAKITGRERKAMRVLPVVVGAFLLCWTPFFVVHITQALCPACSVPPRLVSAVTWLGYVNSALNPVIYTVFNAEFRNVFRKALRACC
Experimental: as §1, §2, §3

[5] = biological target: D2 dopaminergic receptors (Homo sapiens, UniProt P14416); test: Cellular functional assay, D2 dopaminergic receptors; conditions: for D2 ag [%]: agonism, percent of control specific agonist response (3 μM dopamine for control); for D2 ag [%] / D2 antag [%]: D2S (h), HEK-293 cells; for D2 antag [%]: antagonism, stimulus dopamine (30 nM)
Experimental: as §1, §2, §3

[6] = biological target: D3 dopaminergic receptors (Homo sapiens, UniProt P35462); test: Cellular functional assay, D3 dopaminergic receptors; conditions: for D3 ag [%]: agonism, percent of control specific agonist response (0.3 μM dopamine for control); for D3 ag [%] / D3 antag [%]: D3 (h), CHO cells; for D3 antag [%]: antagonism, stimulus dopamine (10 nM)
Experimental: as §1, §2, §3

[7] = agonist mode, percent of control specific agonist response

5-HT6 serotoninergic receptors, sequence (P50406 whole entry): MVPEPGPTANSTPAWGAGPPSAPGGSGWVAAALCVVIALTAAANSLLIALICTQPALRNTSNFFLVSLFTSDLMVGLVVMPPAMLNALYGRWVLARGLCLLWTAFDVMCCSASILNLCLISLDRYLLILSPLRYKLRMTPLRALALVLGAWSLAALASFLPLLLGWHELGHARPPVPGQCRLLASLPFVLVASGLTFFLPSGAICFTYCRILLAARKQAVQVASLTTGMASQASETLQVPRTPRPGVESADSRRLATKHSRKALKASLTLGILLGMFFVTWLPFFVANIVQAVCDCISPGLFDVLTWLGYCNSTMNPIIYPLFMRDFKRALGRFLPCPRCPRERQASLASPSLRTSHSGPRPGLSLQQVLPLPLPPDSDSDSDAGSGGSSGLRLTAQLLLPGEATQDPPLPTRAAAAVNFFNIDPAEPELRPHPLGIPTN
5-HT2A serotoninergic receptors, sequence (P28223 whole entry): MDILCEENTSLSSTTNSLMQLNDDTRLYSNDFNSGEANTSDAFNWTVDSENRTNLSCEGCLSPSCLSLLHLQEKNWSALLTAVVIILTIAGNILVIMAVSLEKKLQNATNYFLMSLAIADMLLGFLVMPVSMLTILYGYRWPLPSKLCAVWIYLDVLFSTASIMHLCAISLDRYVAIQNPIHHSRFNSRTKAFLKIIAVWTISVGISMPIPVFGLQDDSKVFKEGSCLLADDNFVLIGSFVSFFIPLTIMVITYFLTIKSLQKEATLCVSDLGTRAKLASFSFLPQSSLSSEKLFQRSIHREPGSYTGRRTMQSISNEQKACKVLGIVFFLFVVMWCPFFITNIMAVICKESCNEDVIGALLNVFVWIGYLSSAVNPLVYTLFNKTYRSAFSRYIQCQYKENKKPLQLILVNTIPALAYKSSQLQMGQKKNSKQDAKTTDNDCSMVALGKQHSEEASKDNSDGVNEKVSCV
D3 dopaminergic receptors, sequence (P35462 whole entry): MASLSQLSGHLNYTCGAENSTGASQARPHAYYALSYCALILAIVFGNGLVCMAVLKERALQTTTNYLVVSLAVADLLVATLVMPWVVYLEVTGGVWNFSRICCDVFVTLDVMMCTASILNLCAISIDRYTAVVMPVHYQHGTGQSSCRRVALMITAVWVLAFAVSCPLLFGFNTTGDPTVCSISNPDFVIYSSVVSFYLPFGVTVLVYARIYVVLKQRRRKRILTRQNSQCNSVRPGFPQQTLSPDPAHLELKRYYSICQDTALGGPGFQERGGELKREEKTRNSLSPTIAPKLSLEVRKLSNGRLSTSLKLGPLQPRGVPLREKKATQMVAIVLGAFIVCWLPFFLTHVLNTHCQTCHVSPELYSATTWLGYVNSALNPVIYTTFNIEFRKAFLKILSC
D2 dopaminergic receptors, sequence (P14416 whole entry): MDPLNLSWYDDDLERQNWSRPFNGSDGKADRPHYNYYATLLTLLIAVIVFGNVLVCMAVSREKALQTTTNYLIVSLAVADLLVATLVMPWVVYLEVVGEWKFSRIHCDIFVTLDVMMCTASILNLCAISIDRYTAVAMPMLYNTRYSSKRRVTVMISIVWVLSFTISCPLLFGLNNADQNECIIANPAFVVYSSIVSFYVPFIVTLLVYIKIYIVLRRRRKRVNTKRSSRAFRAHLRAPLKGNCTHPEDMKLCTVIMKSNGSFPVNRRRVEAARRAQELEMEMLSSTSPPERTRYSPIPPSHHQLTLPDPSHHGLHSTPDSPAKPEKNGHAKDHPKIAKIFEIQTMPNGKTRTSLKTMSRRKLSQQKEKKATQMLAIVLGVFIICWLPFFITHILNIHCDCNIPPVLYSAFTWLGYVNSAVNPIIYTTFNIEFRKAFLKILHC
5-HT7 serotoninergic receptors, sequence (P34969 whole entry): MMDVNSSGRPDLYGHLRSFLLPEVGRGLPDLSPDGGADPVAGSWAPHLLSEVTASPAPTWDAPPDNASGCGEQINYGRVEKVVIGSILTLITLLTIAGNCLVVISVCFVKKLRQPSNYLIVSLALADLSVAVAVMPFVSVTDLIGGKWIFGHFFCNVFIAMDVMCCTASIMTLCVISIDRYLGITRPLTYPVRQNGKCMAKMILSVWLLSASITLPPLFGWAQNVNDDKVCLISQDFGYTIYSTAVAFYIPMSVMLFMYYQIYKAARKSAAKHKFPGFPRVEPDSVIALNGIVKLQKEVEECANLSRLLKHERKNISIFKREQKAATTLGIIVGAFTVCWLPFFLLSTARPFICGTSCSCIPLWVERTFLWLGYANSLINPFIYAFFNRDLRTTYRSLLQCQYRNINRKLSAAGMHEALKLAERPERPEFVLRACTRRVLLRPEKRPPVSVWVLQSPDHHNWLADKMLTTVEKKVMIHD

## O=S(=O)(NC1CCN(CCCc2noc3cc(F)ccc23)C1)c1cccc2ccccc12 (stereo not shown) [Compound 20, N-[1-[3-(6-Fluoro-1,2-benzoxazol-3-yl)propyl]pyrrolidin-3-yl]naphthalene-1-sulphonamide]
[1]
  5-HT6 ag [%]: 1%
[2]
  5-HT7 ag [%]: −2%
[3]
  5-HT2A ag [%]: 0%
[4]
  D4 ag [%]: 17%
  D4 antag [%]: 79%
[5]
  D2 ag [%]: 4%
  D2 antag [%]: 32%

## O=S(=O)(N[C@H]1CCN(CCCc2noc3cc(F)ccc23)C1)c1csc2ccccc12 [Compound 225, N-[(3S)-1-[3-(6-Fluoro-1,2-benzoxazol-3-yl)propyl]pyrrolidin-3-yl]benzothiophene-3-sulphonamide]
[1]
  5-HT6 ag [%]: 1%
[2]
  5-HT7 ag [%]: 0%
[3]; [7]
  5-HT2A ag [%]: −1%
[4]
  D4 ag [%]: −3%
  D4 antag [%]: 35%
[5]
  D2 ag [%]: 7%
  D2 antag [%]: 52%

## Cc1cc(S(=O)(=O)N[C@@H]2CCN(CCCc3noc4cc(F)ccc34)C2)c(C)s1 [Compound 222, N-[(3R)-1-[3-(6-Fluoro-1,2-benzoxazol-3-yl)propyl]pyrrolidin-3-yl]-2,5-dimethyl-thiophene-3-sulphonamide]
[1]
  5-HT6 ag [%]: −1%
[2]
  5-HT7 ag [%]: −1%
[3]
  5-HT2A ag [%]: −1%
[4]
  D4 ag [%]: 6%
  D4 antag [%]: 58%
[5]
  D2 ag [%]: 6%
  D2 antag [%]: 65%

## Cc1cc(S(=O)(=O)N[C@H]2CCN(CCCc3noc4cc(F)ccc34)C2)c(C)s1 [Compound 223, N-[(3S)-1-[3-(6-Fluoro-1,2-benzoxazol-3-yl)propyl]pyrrolidin-3-yl]-2,5-dimethyl-thiophene-3-sulphonamide]
[1]
  5-HT6 ag [%]: −1%
[2]
  5-HT7 ag [%]: 0%
[3]
  5-HT2A ag [%]: 0%
[4]
  D4 ag [%]: 4%
  D4 antag [%]: 22%

## COc1ccc2cc(S(=O)(=O)NC3CCN(CCCc4noc5cc(F)ccc45)C3)ccc2c1 (stereo not shown) [Compound 227, N-[1-[3-(6-Fluoro-1,2-benzoxazol-3-yl)propyl]pyrrolidin-3-yl]-6-methoxy-naphthalene-2-sulphonamide]
[1]
  5-HT6 ag [%]: −4%
[2]
  5-HT7 ag [%]: −2%
[3]; [7]
  5-HT2A ag [%]: −2%
[6]
  D3 ag [%]: −6%
  D3 antag [%]: 105%
[5]
  D2 ag [%]: 11%
  D2 antag [%]: 99%

## O=S(=O)(N[C@@H]1CCN(CCCc2noc3cc(F)ccc23)C1)c1csc2ccccc12 [Compound 224, N-[(3R)-1-[3-(6-Fluoro-1,2-benzoxazol-3-yl)propyl]pyrrolidin-3-yl]benzothiophene-3-sulphonamide]
[1]
  5-HT6 ag [%]: −1%
[2]
  5-HT7 ag [%]: −1%
[3]; [7]
  5-HT2A ag [%]: −2%
[4]
  D4 ag [%]: −7%
  D4 antag [%]: 84%
[5]
  D2 ag [%]: 5%
  D2 antag [%]: 57%

## Cc1c(S(=O)(=O)NC2CCN(CCCc3noc4cc(F)ccc34)C2)sc2ccc(F)cc12 (stereo not shown) [Compound 28, 5-Fluoro-N-[1-[3-(6-fluoro-1,2-benzoxazol-3-yl)propyl]pyrrolidin-3-yl]-3-methyl-benzothiophene-2-sulphonamide]
[1]
  5-HT6 ag [%]: −1%
[2]
  5-HT7 ag [%]: −3%
[3]; [7]
  5-HT2A ag [%]: −2%
[6]
  D3 ag [%]: −8%
  D3 antag [%]: 74%
[5]
  D2 ag [%]: 1%
  D2 antag [%]: 87%

## O=S(=O)(N[C@@H]1CCN(CCCc2noc3cc(F)ccc23)C1)c1cc2ccccc2o1 [Compound 214, N-[(3R)-1-[3-(6-Fluoro-1,2-benzoxazol-3-yl)propyl]pyrrolidin-3-yl]benzo-furan-2-sulphonamide]
[1]
  5-HT6 ag [%]: −4%
[2]
  5-HT7 ag [%]: −1%
[3]; [7]
  5-HT2A ag [%]: −2%
[6]
  D3 antag [%]: 117%
[5]
  D2 ag [%]: 3%
  D2 antag [%]: 89%

## O=S(=O)(N[C@@H]1CCN(CCCc2noc3cc(F)ccc23)C1)c1cc2ccc(Cl)cc2s1 [Compound 198, 6-Chloro-N-[(3R)-1-[3-(6-fluoro-1,2-benzoxazol-3-yl)propyl]pyrrolidin-3-yl]benzothiophene-2-sulphonamide]
[1]
  5-HT6 ag [%]: −1%
[2]
  5-HT7 ag [%]: 1%
[3]; [7]
  5-HT2A ag [%]: −3%
[6]
  D3 ag [%]: −17%
  D3 antag [%]: 97%
[5]
  D2 ag [%]: 4%
  D2 antag [%]: 83%

## O=S(=O)(NC1CCN(CCCc2noc3cc(F)ccc23)C1)c1csc2ccccc12 (stereo not shown) [Compound 26, N-[1-[3-(6-Fluoro-1,2-benzoxazol-3-yl)propyl]pyrrolidin-3-yl]-benzothiophene-3-sulphonamide]
[1]
  5-HT6 ag [%]: 0%
[2]
  5-HT7 ag [%]: −3%
[3]; [7]
  5-HT2A ag [%]: −1%
[4]
  D4 ag [%]: −4%
  D4 antag [%]: 88%
[5]
  D2 ag [%]: 3%
  D2 antag [%]: 68%

## O=S(=O)(N[C@@H]1CCN(CCCc2noc3cc(F)ccc23)C1)c1ccc2cc(Cl)ccc2c1 [Compound 200, 6-Chloro-N-[(3R)-1-[3-(6-fluoro-1,2-benzoxazol-3-yl)propyl]pyrrolidin-3-yl]naphthalene-2-sulphonamide]
[1]
  5-HT6 ag [%]: −2%
[2]
  5-HT7 ag [%]: −1%
[3]; [7]
  5-HT2A ag [%]: 0%
[6]
  D3 ag [%]: −1%
  D3 antag [%]: 93%
[5]
  D2 ag [%]: 0%
  D2 antag [%]: 96%

## O=S(=O)(N[C@@H]1CCN(CCCc2noc3cc(F)ccc23)C1)c1ccc2ccccc2c1 [Compound 206, N-[(3R)-1-[3-(6-Fluoro-1,2-benzoxazol-3-yl)propyl]pyrrolidin-3-yl]naphthalene-2-sulphonamide]
[1]
  5-HT6 ag [%]: −2%
[2]
  5-HT7 ag [%]: −1%
[3]
  5-HT2A ag [%]: −1%
[6]
  D3 ag [%]: 3%
  D3 antag [%]: 77%
[5]
  D2 ag [%]: 1%
  D2 antag [%]: 96%

## O=S(=O)(NC1CCN(CCCc2noc3cc(F)ccc23)C1)c1cc2ccccc2s1 (stereo not shown) [Compound 25, N-[1-[3-(6-Fluoro-1,2-benzoxazol-3-yl)propyl]pyrrolidin-3-yl]-benzothiophene-2-sulphonamide]
[1]
  5-HT6 ag [%]: 0%
[1]; apparent dissociation constant, modified Cheng Prusoff equation, read-out: 5-HT6 antag Kb
  Kb: 10 nM
[2]
  5-HT7 ag [%]: −2%
[2]; apparent dissociation constant, modified Cheng Prusoff equation, read-out: 5-HT7 antag Kb
  Kb: 1.4 nM
[3]
  5-HT2A ag [%]: −2%
[3]; apparent dissociation constant, modified Cheng Prusoff equation, read-out: 5-HT2A antag Kb
  Kb: 4.7 nM
[6]
  D3 ag [%]: 0%
  D3 antag [%]: 82%
[6]; apparent dissociation constant, modified Cheng Prusoff equation, read-out: D3 antag Kb
  Kb: 8 nM
[5]
  D2 ag [%]: 3%
  D2 antag [%]: 89%
[5]; apparent dissociation constant, modified Cheng Prusoff equation, read-out: D2 antag Kb
  Kb: 2.3 nM

## Cc1cc(S(=O)(=O)NC2CCN(CCCc3noc4cc(F)ccc34)C2)c(C)s1 (stereo not shown) [Compound 221, N-[1-[3-(6-Fluoro-1,2-benzoxazol-3-yl)propyl]pyrrolidin-3-yl]-2,5-dimethyl-thiophene-3-sulphonamide]
[1]
  5-HT6 ag [%]: −4%
[2]
  5-HT7 ag [%]: 2%
[3]
  5-HT2A ag [%]: −2%
[4]
  D4 ag [%]: 10%
  D4 antag [%]: 73%
[6]
  D3 ag [%]: −3%
  D3 antag [%]: 100%
[5]
  D2 ag [%]: 14%
  D2 antag [%]: 97%

## O=S(=O)(NC1CCN(CCCc2noc3cc(F)ccc23)C1)c1ccc2cc(Cl)ccc2c1 (stereo not shown) [Compound 23, 6-Chloro-N-[1-[3-(6-fluoro-1,2-benzoxazol-3-yl)propyl]pyrrolidin-3-yl]naphthalene-2-sulphonamide]
[1]
  5-HT6 ag [%]: −1%
[2]
  5-HT7 ag [%]: −2%
[3]; [7]
  5-HT2A ag [%]: −2%
[6]
  D3 ag [%]: −10%
  D3 antag [%]: 68%
[5]
  D2 ag [%]: 1%
  D2 antag [%]: 87%

Reference: patent US20140135310A1, “SULPHONAMIDE DERIVATIVES OF ALICYCLIC AMINES FOR THE TREATMENT OF CENTRAL NERVOUS SYSTEM DISEASES” (Adamed Sp. z o.o., priority 2011, published 2014)
